Measured values published in patent publication US20110239322A1, “IN VITRO FLOWERING/SEED SET LEADING TO PARTIAL OR COMPLETE MALE STERILITY IN GRASSES” (THE PENN STATE RESEARCH FOUNDATION, priority 2010, published 2011).

System: shoot explant
Assay: in vitro flowering on flowering medium (MS medium with growth regulators)
Parameters: species or system grasses
Description: In a preferred embodiment, seeds are washed in running tap water with a drop of soap for 5 mins and sterilized with 95% ethyl alcohol for 2 min followed by a 15 minute treatment with 10% bleach and washed three times for 5 min intervals with sterile distilled water. Ten seeds are germinated in each petriplate with MS medium with […]. After germination on MS 2,4-D, for a period of time, such as 3-7 days in the dark at 24±2° C. The flowering medium preferably comprises a substituted phenylurea cytokinin analog, such as TDZ and a cytokinin such as BAP.
Cultures are incubated at 24±2° C. under a 16/8-hour […] photoperiod provided by cool-white fluorescent lights at a quantum flux density of 30 μmol s^−1 m^−2. Following a passage of time, typically within 2 weeks, callus induction occurs, having taken the first internode of the germinated seed (on MS 4 mg/L 2,4-D medium). After about two weeks, the callus is transferred to regeneration medium, to allow for shoot induction (MS, 0.5 mg/L BAP, 0.1 mg/L 2,4-D, 38 mg/L CuSO4). During this time (shoot regeneration), cultures are incubated with necessary dark photoperiodic conditions to promote growth and to mimic natural growing conditions. Additionally, over time it may be necessary to subculture the explants with fresh MS, BAP, 2,4-D, CuSO4. […]

SMILES: O=C(Nc1ccccc1)Nc1cnns1 [TDZ, 1-phenyl-3-(1,2,3-thiadiazol-5-yl)urea]
- flower production on shoot explant (TDZ 2.0 mg/L combined with BAP 1.0 mg/L in flowering medium): flowers are produced directly on a shoot explant
- flower production on shoots developed from callus (TDZ 1.0-2.0 mg/L without BAP): produces flowers on shoots developed from callus
